Source: publication PMC3944389, “Differential Neuroprotective Effects of 5′-Deoxy-5′-Methylthioadenosine” (PLoS ONE, 2014)

Assays:
[1] = system: Sprague-Dawley rats, pilocarpine-induced status epilepticus; test: Pilocarpine-induced status epilepticus (SE) model; type: in vivo, rat
Method: Young adult (175–200 g) male Sprague-Dawley rats from Charles River (Wilmington, MA, US) were divided into four MTA treatment groups, with 9–11 rats per group. In group A, rats were subjected to pilocarpine-induced status epilepticus (SE) as described previously. Following 90 min of continuous seizure activity, SE was stopped by administering a single dose of diazepam (10 mg/kg). The rats were then injected daily for 3 days with either the vehicle alone (2% DMSO in H2O), injecting a volume of body weight x 3.3 (a similar volume as for the MTA treated groups), or MTA (30 mg/kg). Rats were euthanized on day 4 after SE under anesthesia by transcardiac perfusion with 4% paraformaldehyde (PFA) in phosphate-buffered saline. The brains were removed, postfixed in 4% PFA, cryoprotected in 30% sucrose, frozen, and sectioned for histology. In group B, the rats received the same treatment as those in group A (vehicle or MTA 30 mg/kg) except that the rats were perfused on day 30 after SE and a 0,37% sulphide fixative was used for subsequent Timm staining. In group C, the rats were only treated with MTA (30 mg/kg) or the vehicle for 2 days and on the third day, the rats were again subjected to pilocarpine-induced SE. The animals were then treated once daily with MTA (30 mg/kg) or vehicle for a further 3 days, and they were anesthetized and euthanized 4 days after SE. […]
Mouse and rat coronal sections were mounted on glass slides in a 0.2% solution of gelatin in 0.05 M Trizma base [pH 7.6] […] To evaluate sprouting of the zinc-containing mossy fibers in the dentate gyrus inner molecular layer, Timm-stained sections were analyzed by an examiner blinded to experimental condition. […] Twelve samples of pixel density/section were measured in the inner molecular layer using NIH ImageJ, 5 from the lower blade, 5 from the upper blade and 2 from the apex. The average background level (mean of 12 samples/section) was subtracted and a mean pixel density calculated for each animal (n = 4–5/group). […]

[2] = system: C57Bl mice treated with MPTP; test: MPTP mouse model of Parkinson's disease, stereological counting of TH+ neurons; type: in vivo; settings: MTA 30 mg/kg, MSX-3 10 mg/kg (legend: 9 mg/kg), alone or combined; MPTP 30 mg/kg i.p. 5 days
Method: 12-week-old male C57Bl mice from Charles River (Barcelona, Spain) were injected i.p. with 30 mg/kg 1-methyl-4-phenyl-1,2,3,6-tetrahydropyridine (MPTP, Sigma-Aldrich) on five consecutive days. Subsequently, MTA (30 mg/kg) and/or the A2A adenosine receptor (A2AR, 10 mg/kg) antagonist, MSX-3 (Sigma-Aldrich), was administered one day before starting MPTP treatment and 1 h after each MPTP injection (n = 6 in each experimental group). We used mice in the MPTP model because rats are resistant to systemic MPTP administration and thus, the rat MPTP model requires stereotaxic MPTP injection directly into the nigrostriatal fibers. […]
The reference volume was calculated according to Cavalieri principles from images obtained with a 2× objective using a point count array. The cross-sectional area of the nucleus was measured and the reference volume (Vr) for the entire nucleus was estimated using the following equation: [drawing 1] where T is the thickness of the sections, a/p is the area of each point and Pi is the number of points that landed within the area. The region of interest to estimate the area was outlined at low magnification (4×), and the number of labeled neurons was calculated under 100× magnification (with oil immersion) using randomized meander sampling and the optical dissector methods. […]

Which “mossy fiber sprouting (Timm staining)” value ([1]; MTA 30 mg/kg pre-SE or post-SE, 30 days after SE) does the source give for 5′-deoxy-5′-methylthioadenosine [MTA] here?
Its value is “No difference”.

What about the “neurodegeneration and neuronal loss in hippocampal areas (NeuN immunoreactivity)” value ([1]; MTA 30 mg/kg/day before or after SE, early (3-5 days) and late (30 days) time points) of the same substance?
The value was “reduced the neurodegeneration and neuronal loss”.

And the “neuronal loss in the CA3 and CA1 hippocampal areas (stereological counting of NeuN-immunoreactive cells)” value ([1]; MTA 30 mg/kg/day prior to SE, 30 days after SE)?
Its value is “significant reductions”.

And the “neuroprotection: TH+ neurons in the substantia nigra” value [2]?
Its value is “not statistically significant”.
